In patent US20250171459A1, “2-METHYL-4',5'-DIHYDROSPIRO[PIPERIDINE-4,7'-THIENO[2,3-C]PYRAN] DERIVATIVES AS INHIBITORS OF APOL1 AND METHODS OF USING SAME” (Vertex Pharmaceuticals Incorporated, priority 2022, published 2025):

molecular target: T1, APOL1 (Homo sapiens, UniProt O14791); assay: MultiTox-Fluor Multiplex Cytotoxicity Assay in tet-inducible APOL1 T-REx-HEK293 cells (cell rescue, ratio of dead to live cells); assay type: cell-based; details: tet-inducible transgenic APOL1 T-REx-HEK293 cell lines, 50 ng/mL tet, 24 hours; read-out: IP50 (i.e., IC50 for cell proliferation)
T1 sequence (O14791 1-398 S342G/I384M): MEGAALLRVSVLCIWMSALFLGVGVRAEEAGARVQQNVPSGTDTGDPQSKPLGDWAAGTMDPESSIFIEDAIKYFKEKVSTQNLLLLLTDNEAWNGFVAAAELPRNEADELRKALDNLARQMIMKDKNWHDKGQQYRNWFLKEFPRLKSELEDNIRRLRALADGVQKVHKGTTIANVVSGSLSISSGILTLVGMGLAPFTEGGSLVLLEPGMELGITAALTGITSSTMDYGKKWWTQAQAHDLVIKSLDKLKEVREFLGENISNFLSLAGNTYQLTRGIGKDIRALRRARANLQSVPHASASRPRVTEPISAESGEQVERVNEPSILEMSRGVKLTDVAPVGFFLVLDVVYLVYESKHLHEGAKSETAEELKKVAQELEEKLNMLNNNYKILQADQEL
How it was run: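 T-REx-HEK293 cells with tet-inducible APOL1 were treated with compound (10 μM top, 10-point 3-fold dilution, duplicate) plus 50 ng/mL tetracycline for 24 h at 37° C, in DMEM with 2% tet-free FBS. MultiTox-Fluor protease signals gave a dead/live ratio, normalized to no tet (100% viability) and tet alone (0%).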

SMILES	IC50 [nM]
CCc1cc2c(s1)CCO[C@@]21CCN(Cc2cn(Cc3cn(C)nc3C)nn2)[C@@H](C)C1 [Compound 54]	< 100
CCc1cc2c(s1)CCO[C@@]21CCN(Cc2cn(CCc3c[nH]cn3)nn2)[C@@H](C)C1 [Compound 48]	< 100
CCc1cc2c(s1)CCO[C@@]21CCN(C[C@H]2C[C@@H](NS(=O)(=O)CC)C2)[C@@H](C)C1 [Compound 394]	< 100
C[C@H]1C[C@@]2(CCN1Cc1cnn(C3CN(S(C)(=O)=O)C3)c1)OCCc1c2sc(C(F)(F)F)c1CO [Compound 883]	< 100
Cc1cccc(CN2CC[C@]3(C[C@@H]2C)OCCc2cc(Cl)sc23)n1 [Compound 680]	500 to 1000
C[C@H]1C[C@@]2(CCN1Cc1cnn(CCCC(N)=O)c1)OC[C@@H](O)c1cc(C(F)(F)F)sc12 [Compound 927]	< 100
CCc1cc2c(s1)CCO[C@@]21CCN(CC2CN(C(=O)c3ncc(OC)o3)C2)[C@@H](C)C1 [Compound 466]	< 100
C[C@H]1C[C@@]2(CCN1Cc1ccc(F)cc1)OCCc1c2sc(Cl)c1CO [Compound 755]	100 to 500
Cc1cc2c(s1)CCO[C@@]21CCN(C2COCC2O)[C@@H](C)C1 (single isomer, unassigned) [Compound 500]	< 100
CCc1cc2c(s1)CCOC21CCN(Cc2cn(CC(O)CC)nn2)C(C)C1 (stereo not shown) [Compound 133]	< 100
CCc1cc2c(s1)CCO[C@@]21CCN(C[C@H]2C[C@@H](NC(=O)c3ccc4[nH]nnc4c3)C2)[C@@H](C)C1 [Compound 358]	< 100
CCc1cc2c(s1)CCO[C@@]21CCN(C[C@H]2C[C@@H](NC(=O)CS(C)(=O)=O)C2)[C@@H](C)C1 [Compound 343]	< 100
CCc1cc2c(s1)CCO[C@@]21CCN(Cc2cnn(CCS(C)(=O)=O)c2)[C@@H](C)C1 [Compound 268]	< 100
CCc1cc2c(s1)CCO[C@@]21CCN(Cc2cn(CCSC(F)(F)F)nn2)[C@@H](C)C1 [Compound 22]	< 100
CCc1cc2c(s1)CCO[C@@]21CCN(Cc2cn(CC3(C(O)C(C)C)CC3)nn2)[C@@H](C)C1 (stereo partly shown) [Compound 74]	100 to 500
CC(=O)Nc1ccc(CN2CC[C@]3(C[C@@H]2C)OC[C@H](O)c2cc(Cl)sc23)cc1 [Compound 799]	< 100
CCc1cc2c(s1)CCO[C@@]21CCN(CC(C)(C)O)[C@@H](C)C1 [Compound 236]	100 to 500
CCc1cc2c(s1)CCO[C@@]21CCN(C[C@H]2C[C@@H](NS(=O)(=O)CCO)C2)[C@@H](C)C1 [Compound 388, N-[3-[[(2′S,4R)-2-ethyl-2′-methyl-spiro[6,7-dihydrothieno[3,2-c]pyran-4,4′-piperidine]-1′-yl]methyl]cyclobutyl]-2-hydroxy-ethanesulfonamide]	< 100
C[C@H]1C[C@@]2(CCN1Cc1ccccn1)OCCc1c2sc(Cl)c1CO [Compound 758]	500 to 1000
CCc1cc2c(s1)CCO[C@@]21CCN(C[C@H]2C[C@@H](NC(=O)c3ncccc3O)C2)[C@@H](C)C1 [Compound 345]	100 to 500
CCc1cc2c(s1)CCO[C@@]21CCN(C[C@H]2C[C@@H](NS(=O)(=O)c3cccc(C#N)c3)C2)[C@@H](C)C1 [Compound 400]	< 100

SMILES	IC50 [nM]
CCc1cc2c(s1)CCO[C@@]21CCN(C2COCC2O)[C@@H](C)C1 (stereo partly drawn) [Compound 232, 4-[(2′S,4R)-2-ethyl-2′-methyl-spiro[6,7-dihydrothieno[3,2-c]pyran-4,4′-piperidine]-1′-yl]tetrahydrofuran-3-ol]	< 100
CCc1cc2c(s1)CCOC21CCN(Cc2csc(C(F)(F)F)n2)CC1 [Compound 1147]	500 to 1000
C[C@H]1C[C@@]2(CCN1Cc1cnn(CC3CCOCC3)c1)OCCc1c2sc(Cl)c1CO [Compound 761]	100 to 500
CCc1cc2c(s1)CCO[C@@]21CCN(C[C@H]2C[C@@H](NC(=O)C(C)S(C)(=O)=O)C2)[C@@H](C)C1 (stereo partly shown) [Compound 341]	< 100
C[C@H]1C[C@@]2(CCN1Cc1cn(-c3ncccn3)cn1)OC[C@H](O)c1cc(Cl)sc12 [Compound 790]	100 to 500
C[C@H]1C[C@@]2(CCN1Cc1cnn(CC(O)CC(C)(C)O)c1)OC[C@@H](O)c1cc(C(F)(F)F)sc12 (stereo partly shown) [Compound 977]	< 100
CCc1cc2c(s1)CCOC21CCN(Cc2ccc(C(=O)NCC3CCC(O)C3)nc2)CC1 (stereo not shown) [Compound 1060]	100 to 500
C[C@H]1C[C@@]2(CCN1Cc1cncnc1)OCCc1cc(CC(F)F)sc12 [Compound 567]	< 100
CCc1cc2c(s1)CCOC21CCN(Cc2ccc(C(=O)N[C@H](C)CO)nc2)CC1 [Compound 1046]	< 100
COc1ccc(CN2CC[C@]3(C[C@@H]2C)OC[C@H](O)c2cc(Cl)sc23)cn1 [Compound 804]	< 100
CCc1cc2c(s1)CCOC21CCN(Cc2ccc(NS(=O)(=O)CCCO)cc2)CC1 [Compound 1159, N-(4-((2′-ethyl-6′,7′-dihydrospiro[piperidine-4,4′-thieno[3,2-c]pyran]-1-yl)methyl)phenyl)-3-hydroxypropane-1-sulfonamide]	< 100
C[C@H]1C[C@@]2(CCN1Cc1ncccc1F)OCCc1cc(Cl)sc12 [Compound 684]	500 to 1000
CCc1cc2c(s1)CCO[C@@]21CCN(C[C@H]2C[C@@H](NC(=O)C3CCC3(F)F)C2)[C@@H](C)C1 (stereo partly shown) [Compound 325]	< 100
CCc1cc2c(s1)CCOC21CCN(Cc2cn(C(C)c3nnc(C)o3)nn2)CC1 (stereo not shown) [Compound 1101]	500 to 1000
C[C@H]1C[C@@]2(CCN1Cc1ccc(NS(C)(=O)=O)cc1)OC[C@H](O)c1cc(Cl)sc12 [Compound 780]	< 100
CCc1cc2c(s1)CCO[C@@]21CCN(Cc2ccc(N[C@@H](CO)[C@@H](C)O)nc2)[C@@H](C)C1 [Compound 214]	< 100
CCc1cc2c(s1)CCOC21CCN(Cc2cn(CCS(=O)(=O)C3CCOCC3)nn2)CC1 [Compound 1091]	500 to 1000
CCc1cc2c(s1)CCO[C@@]21CCN(Cc2cn(C[C@H](O)C(C)(C)C)nn2)[C@@H](C)C1 [Compound 113]	< 100
CCc1cc2c(s1)CCOC21CCN(Cc2cn(CC(O)c3cnn(C)c3)nn2)CC1 (stereo not shown) [Compound 1097]	500 to 1000
CCc1cc2c(s1)CCO[C@@]21CCN(Cc2cn(CC3(CCO)CC3)nn2)[C@@H](C)C1 [Compound 83]	100 to 500
COc1ccc(CN2CC[C@]3(C[C@@H]2C)OCCc2cc(Cl)sc23)cn1 [Compound 662]	< 100

SMILES	IC50 [nM]
C[C@H]1C[C@@]2(CCN1C[C@H](O)CO)OCCc1cc(CC(F)F)sc12 [Compound 607]	100 to 500
Cc1ccc(CN2CC[C@]3(C[C@@H]2C)OC[C@H](O)c2cc(Cl)sc23)c(C)n1 [Compound 788]	100 to 500
Cc1cc2c(s1)CCO[C@@]21CCN(Cc2cnn(CCS(C)(=O)=O)c2)[C@H](C)C1 [Compound 517]	100 to 500
Cc1ncc(CN2CC[C@]3(C[C@@H]2C)OCCc2cc(Cl)sc23)n1C [Compound 683]	500 to 1000
C[C@H]1C[C@@]2(CCN1Cc1ccc(N(CCO)CCO)cc1)OCCc1cc(Cl)sc12 [Compound 636]	< 100
CCc1cc2c(s1)CCO[C@@]21CCN(CC(C)C)[C@@H](C)C1 [Compound 276]	500 to 1000
CCc1cc2c(s1)CCO[C@@]21CCN(Cc2cn(CCc3cn(C)cn3)nn2)[C@@H](C)C1 [Compound 36]	100 to 500
CCc1cc2c(s1)CCO[C@@]21CCN(C[C@H]2C[C@@H](NC(=O)C3CC(C(F)(F)F)C3)C2)[C@@H](C)C1 (stereo partly shown) [Compound 331]	100 to 500
C[C@H](O)CN1CC[C@]2(C[C@@H]1C)OCCc1sc(Cl)cc12 [Compound 507]	100 to 500
C[C@H]1C[C@@]2(CCN1Cc1cnn(CCS(C)(=O)=O)c1)OCCc1c2sc(Cl)c1CO [Compound 754]	< 100
COc1cnc(CN2CC[C@]3(C[C@@H]2C)OCCc2c3sc(Cl)c2CO)cn1 [Compound 720]	100 to 500
CCc1cc2c(s1)CCO[C@@]21CCN(C[C@H]2C[C@@H](NS(=O)(=O)c3cccs3)C2)[C@@H](C)C1 [Compound 405]	< 100
Cc1cc2c(s1)CCO[C@]21CCN(Cc2cnn(CCS(C)(=O)=O)c2)[C@@H](C)C1 [Compound 516, (2′S,4S)-2,2′-dimethyl-1′-[[1-(2-methylsulfonylethyl)pyrazol-4-yl]methyl]spiro[6,7-dihydrothieno[3,2-c]pyran-4,4′-piperidine]]	< 100
CCc1cc2c(s1)CCOC21CCN(Cc2cnc(N[C@H](CC)CO)nc2)CC1 [Compound 1077]	100 to 500
CCc1cc2c(s1)CCOC21CCN(Cc2cn(C(C)C(=O)NCCO)nn2)CC1 (stereo not shown) [Compound 1117]	500 to 1000
C[C@H]1C[C@@]2(CCN1Cc1cnn(CC(O)CC3(O)CCC3)c1)OC[C@@H](O)c1cc(C(F)(F)F)sc12 (stereo partly shown) [Compound 976]	< 100
CCc1cc2c(s1)CCOC21CCN(Cc2ccc(C(=O)NCC3(C)CCOC3)nc2)CC1 (stereo not shown) [Compound 1062]	100 to 500
CCc1cc2c(s1)CCO[C@@]21CCN(CC2CN(C(=O)CS(C)(=O)=O)C2)[C@@H](C)C1 [Compound 449]	100 to 500
CC(C)Cn1cc(CN2CC[C@]3(C[C@@H]2C)OCCc2c3sc(Cl)c2CO)cn1 [Compound 759, [(2′S, 7R)-2-chloro-1′-[(1-isobutylpyrazol-4-yl)methyl]-2′-methyl-spiro[4,5-dihydrothieno[2,3-c]pyran-7,4′-piperidine]-3-yl]methanol]	100 to 500
